In US20050095240A1, “NaCT as a target for lifespan expansion and weight reduction” (Medical College of Georgia Research, priority 2002, published 2005):
Like-named read-outs stand apart in the source and are kept apart here.

Tests used:
zebrafish NaCT = zebrafish NaCT (Danio rerio, UniProt A0A2R8QQN0, K78Q); assay: Citrate uptake via zebrafish NaCT expressed in HRPE cells; assay type: cell-based; details: for Citrate uptake, zfNaCT, percent of corresponding control: 30 min
human NaCT = human NaCT (Homo sapiens, UniProt Q86YT5); assay: Uptake via human NaCT expressed in HRPE cells; assay type: cell-based
rat NaCT [1] = molecular target: T1, rat NaCT (Rattus norvegicus, UniProt Q8CJ44); assay: Uptake via rat NaCT expressed in HRPE cells; assay type: cell-based
T1 sequence (Q8CJ44 1-572): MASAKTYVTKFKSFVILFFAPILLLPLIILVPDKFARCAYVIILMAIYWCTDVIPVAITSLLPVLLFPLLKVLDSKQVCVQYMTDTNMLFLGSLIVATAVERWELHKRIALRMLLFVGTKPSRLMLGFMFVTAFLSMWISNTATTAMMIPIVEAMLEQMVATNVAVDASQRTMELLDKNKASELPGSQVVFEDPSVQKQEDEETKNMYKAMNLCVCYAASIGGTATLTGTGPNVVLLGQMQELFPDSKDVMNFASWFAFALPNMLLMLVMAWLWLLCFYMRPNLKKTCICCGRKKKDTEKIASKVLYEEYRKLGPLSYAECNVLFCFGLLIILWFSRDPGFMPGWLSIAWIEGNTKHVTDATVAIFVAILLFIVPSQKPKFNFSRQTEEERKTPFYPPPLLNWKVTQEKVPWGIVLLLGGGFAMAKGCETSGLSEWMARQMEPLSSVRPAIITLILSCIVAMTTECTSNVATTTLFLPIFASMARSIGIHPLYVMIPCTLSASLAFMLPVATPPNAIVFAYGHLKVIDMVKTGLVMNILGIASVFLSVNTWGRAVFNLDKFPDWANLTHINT

ceNaCT = molecular target: T2, ceNaCT (Caenorhabditis elegans, UniProt P32739, I91S/L182M); assay: Uptake via ceNaCT expressed in HRPE cells
T2 sequence (P32739 1-551 I91S/L182M): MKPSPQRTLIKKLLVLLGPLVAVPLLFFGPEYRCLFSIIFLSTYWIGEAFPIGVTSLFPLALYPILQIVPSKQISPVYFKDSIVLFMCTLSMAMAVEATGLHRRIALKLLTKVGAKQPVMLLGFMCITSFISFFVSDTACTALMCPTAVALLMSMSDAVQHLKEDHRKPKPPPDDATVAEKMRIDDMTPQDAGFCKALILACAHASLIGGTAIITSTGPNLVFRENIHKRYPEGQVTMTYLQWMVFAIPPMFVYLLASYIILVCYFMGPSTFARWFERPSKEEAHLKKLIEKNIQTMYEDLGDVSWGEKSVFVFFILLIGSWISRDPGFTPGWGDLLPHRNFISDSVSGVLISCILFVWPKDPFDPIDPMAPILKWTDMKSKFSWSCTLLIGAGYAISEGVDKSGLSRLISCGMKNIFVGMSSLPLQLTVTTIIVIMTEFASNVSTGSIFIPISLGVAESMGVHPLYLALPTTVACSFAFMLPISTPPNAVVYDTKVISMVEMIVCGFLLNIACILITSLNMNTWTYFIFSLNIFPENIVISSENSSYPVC

mouse NaCT = molecular target: T3, mouse NaCT (Mus musculus, UniProt Q67BT3); assay: Transport via mouse NaCT expressed in HRPE cells; assay type: cell-based
T3 sequence (Q67BT3 1-572): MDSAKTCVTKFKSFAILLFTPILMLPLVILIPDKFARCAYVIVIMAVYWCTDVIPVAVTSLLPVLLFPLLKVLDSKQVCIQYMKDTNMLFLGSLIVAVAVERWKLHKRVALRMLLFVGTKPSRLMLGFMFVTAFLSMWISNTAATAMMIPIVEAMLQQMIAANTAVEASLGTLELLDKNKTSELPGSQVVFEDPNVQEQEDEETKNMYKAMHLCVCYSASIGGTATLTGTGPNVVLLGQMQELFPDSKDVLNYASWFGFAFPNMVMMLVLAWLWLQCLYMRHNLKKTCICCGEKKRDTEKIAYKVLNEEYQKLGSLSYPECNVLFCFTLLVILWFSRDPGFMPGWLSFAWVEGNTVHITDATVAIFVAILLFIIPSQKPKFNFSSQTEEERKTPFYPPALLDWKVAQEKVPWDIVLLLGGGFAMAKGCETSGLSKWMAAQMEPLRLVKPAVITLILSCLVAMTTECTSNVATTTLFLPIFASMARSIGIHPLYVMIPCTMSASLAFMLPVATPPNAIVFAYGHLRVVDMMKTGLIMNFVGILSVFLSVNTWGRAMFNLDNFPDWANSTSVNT

[2] = cited from earlier work
NaCT in HepG2 cells = molecular target: T4, NaCT in HepG2 cells (Homo sapiens, UniProt Q86YT5); assay: Citrate uptake in HepG2 cells (constitutively expressed NaCT); assay type: cell-based
T4 construct: the effect of Li^+ on constitutively expressed NaCT in human liver cells was studied; host or cells: HepG2
Experimental: Uptake measurement in human liver cell lines. The human liver cell lines (HepG2 and Huh-7) were cultured to confluency in 24-well culture plates using appropriate culture medium. The HepG2 cell line was obtained from American Type Culture Collection (Manasses, Va.). The Huh-7 cell line (Bode et al., (2002) Am. J. Physiol. 283, G1062-G1073) was provided by Dr. Barrie P. Bode (St. Louis University, St. Louis, Mo.). Uptake measurements in monolayer cultures of these cells were measured as described above for the heterologously expressed NaCTs.

rat NaCT [3] = molecular target: T1, rat NaCT; assay: Rat NaCT in X. laevis oocytes, voltage clamp and charge-to-substrate ratio; assay type: cell-based
drIndy = drIndy (Drosophila melanogaster, UniProt Q9VVT2)
[4] = substrate: O=C(O)CC(O)(CC(=O)O)C(=O)O; assay: cells, lysate or membranes; details: other: pH 7.5, 37.0 °C
[5] = Li+ 2 mM, valproate 0.6 μM, carbamazepine 50 μM
[6] = [14C]-citrate 20 μM, unlabeled compound 2.5 mM
[7] = [14C]-citrate 20 μM, unlabeled compound 2.5 mM, none = 100
[8] = competitor 2.5 mM, [14C]citrate 15 μM
[9] = [3H]-succinate 0.1 μM, substrate analog 2 mM
[10] = [3H]-succinate 0.1 μM, substrate analog 2 mM, control = 100
[11] = [14C]-citrate 10 μM, substrate analog 2 mM
[12] = [14C]-citrate 10 μM, substrate analog 2 mM, control = 100

Chain of zebrafish NaCT (A0A2R8QQN0 2-582 K78Q): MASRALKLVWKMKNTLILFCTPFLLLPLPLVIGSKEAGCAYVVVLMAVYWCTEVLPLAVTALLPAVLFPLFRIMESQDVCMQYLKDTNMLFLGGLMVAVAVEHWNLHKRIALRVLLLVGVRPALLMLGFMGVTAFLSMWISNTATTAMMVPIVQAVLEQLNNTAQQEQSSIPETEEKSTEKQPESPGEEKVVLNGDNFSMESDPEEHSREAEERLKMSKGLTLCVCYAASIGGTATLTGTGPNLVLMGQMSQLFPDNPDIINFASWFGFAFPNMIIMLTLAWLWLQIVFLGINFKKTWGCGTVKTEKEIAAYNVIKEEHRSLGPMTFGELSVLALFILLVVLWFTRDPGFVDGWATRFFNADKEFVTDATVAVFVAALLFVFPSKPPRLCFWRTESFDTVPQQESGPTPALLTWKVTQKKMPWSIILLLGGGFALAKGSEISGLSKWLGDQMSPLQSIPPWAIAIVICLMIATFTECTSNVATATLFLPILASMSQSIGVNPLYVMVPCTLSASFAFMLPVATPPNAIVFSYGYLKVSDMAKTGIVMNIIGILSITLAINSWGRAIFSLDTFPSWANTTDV
Chain of drIndy (Q9VVT2 19-590): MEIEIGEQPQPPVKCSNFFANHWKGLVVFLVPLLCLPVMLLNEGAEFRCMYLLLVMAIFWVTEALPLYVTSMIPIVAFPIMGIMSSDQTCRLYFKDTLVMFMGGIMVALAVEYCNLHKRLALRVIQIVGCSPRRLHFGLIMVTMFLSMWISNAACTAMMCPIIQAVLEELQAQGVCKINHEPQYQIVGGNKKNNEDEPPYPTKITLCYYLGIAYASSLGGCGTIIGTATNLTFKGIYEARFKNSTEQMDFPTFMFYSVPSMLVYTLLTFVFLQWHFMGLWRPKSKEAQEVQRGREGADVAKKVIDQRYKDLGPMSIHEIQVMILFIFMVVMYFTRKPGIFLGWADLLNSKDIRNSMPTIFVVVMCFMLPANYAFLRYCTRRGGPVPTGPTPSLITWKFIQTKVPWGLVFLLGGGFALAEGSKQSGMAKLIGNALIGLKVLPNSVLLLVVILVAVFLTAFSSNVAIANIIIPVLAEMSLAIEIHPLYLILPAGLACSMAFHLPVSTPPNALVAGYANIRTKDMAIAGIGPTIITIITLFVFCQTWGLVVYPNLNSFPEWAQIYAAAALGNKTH
Chain of human NaCT (Q86YT5 whole entry): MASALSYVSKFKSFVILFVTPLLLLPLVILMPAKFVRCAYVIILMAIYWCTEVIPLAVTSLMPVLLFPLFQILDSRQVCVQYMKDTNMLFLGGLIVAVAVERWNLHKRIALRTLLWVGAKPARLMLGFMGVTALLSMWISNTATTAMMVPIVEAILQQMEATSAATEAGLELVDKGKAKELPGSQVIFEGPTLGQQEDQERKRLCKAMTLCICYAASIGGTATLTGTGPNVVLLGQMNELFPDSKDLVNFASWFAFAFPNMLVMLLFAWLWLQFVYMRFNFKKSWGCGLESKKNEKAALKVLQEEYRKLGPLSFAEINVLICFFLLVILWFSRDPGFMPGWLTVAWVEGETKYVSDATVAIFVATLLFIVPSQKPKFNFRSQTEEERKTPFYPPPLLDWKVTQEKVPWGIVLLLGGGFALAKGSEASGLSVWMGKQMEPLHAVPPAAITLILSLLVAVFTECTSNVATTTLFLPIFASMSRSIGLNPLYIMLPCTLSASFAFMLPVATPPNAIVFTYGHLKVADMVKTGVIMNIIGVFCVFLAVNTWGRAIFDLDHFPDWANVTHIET
T4 sequence (Q86YT5 whole entry): as above

Molecule: NC(=O)N1c2ccccc2C=Cc2ccccc21 [Carbamazepine, carbamazepine]
- Citrate uptake, zfNaCT (zebrafish NaCT): 441.0 ± 2.7 (91) pmol/10^6 cells/min
- Citrate uptake, zfNaCT, percent of corresponding control (zebrafish NaCT; hrpe cells): 441.0 ± 2.7 (91) percent
- Citrate uptake, hNaCT (human NaCT; [5]): 54.1 ± 2.6 pmol/10^6 cells/min
- Citrate uptake, hNaCT, percent of corresponding control (human NaCT; [5]): 105%
- Citrate uptake, rNaCT (rat NaCT [1]; [5]): 133.5 ± 0.7 pmol/10^6 cells/min
- Citrate uptake, rNaCT, percent of corresponding control (rat NaCT [1]; [5]): 90%
- Citrate uptake, ceNaCT (ceNaCT; [5]): 45.1 ± 1.5 pmol/10^6 cells/min
- Citrate uptake, ceNaCT, percent of corresponding control (ceNaCT; [5]): 104%
- Citrate uptake, mNaCT (mouse NaCT; [5]): 43.7 ± 2.0 pmol/10^6 cells/min
- Citrate uptake, mNaCT, percent of corresponding control (mouse NaCT; [5]): 103%
- Therapeutic plasma levels in humans ([2]; human, in vivo): 20 to 50 µM
- Citrate uptake, HepG2 cells (NaCT in HepG2 cells; [5]): 10.0 ± 0.2 pmol/min/mg protein
- Citrate uptake, HepG2 cells, percent of corresponding control (NaCT in HepG2 cells; [5]): 106%

Molecule: CC(O)C(=O)O (centres unmarked) [Lactate, lactate]
- [^14C]-Citrate Uptake (cDNA-specific) (human NaCT): 61.2 ± 6.0 pmol/10^6 cells/min
- [^14C]-Citrate Uptake, % (human NaCT): 128%
- Substrate-induced currents (rat NaCT [3]): no or little currents
- [^14C]Citrate uptake (cDNA-specific) (rat NaCT [1]): 89.6 ± 2.0 Pmol/10^6 cells/min
- [^14C]Citrate uptake, % (rat NaCT [1]): 83%
- Competition with [^14C]citrate for ceNaCT-mediated uptake (ceNaCT): only a minimal inhibition
- [^3H]-Succinate transport (NaCT-specific) (mouse NaCT): 0.162 ± 0.008 pmol/10^6 cells/min
- [^3H]-Succinate transport, % (mouse NaCT): 111%
- [^14C]-Citrate transport (NaCT-specific) (mouse NaCT): 29.8 ± 3.4 pmol/10^6 cells/min
- [^14C]-Citrate transport, % (mouse NaCT): 78%
- % Control of cDNA-specific [^3H]succinate uptake (drIndy): 77%
- cDNA-specific [^3H] succinate uptake (drIndy; pH 7.5): 111.2 ± 3.2 fmol/106 cells per min

Molecule: O=C(O)CC(O)C(=O)O (centres unmarked) [Malate, malate]
- IC50 (human NaCT): 3.12 ± 1.34 mM
- [^14C]-Citrate Uptake (cDNA-specific) (human NaCT; [6]): 29.5 ± 1.9 pmol/10^6 cells/min
- [^14C]-Citrate Uptake, % (human NaCT; [7]): 62%
- [^14C]Citrate uptake (cDNA-specific) (rat NaCT [1]; [14C]citrate 14 μM, unlabeled compound 2.5 mM): 7.8 ± 0.1 Pmol/10^6 cells/min
- [^14C]Citrate uptake, % (rat NaCT [1]; [14C]citrate 14 μM, unlabeled compound 2.5 mM, none = 100): 7%
- Competition with [^14C]citrate for ceNaCT-mediated uptake (ceNaCT; [8]): inhibited markedly
- [^3H]-Succinate transport (NaCT-specific) (mouse NaCT; [9]): 0.004 ± 0.001 pmol/10^6 cells/min
- [^3H]-Succinate transport, % (mouse NaCT; [10]): 3%
- [^14C]-Citrate transport (NaCT-specific) (mouse NaCT; [11]): 0.2 ± 0.1 pmol/10^6 cells/min
- [^14C]-Citrate transport, % (mouse NaCT; [12]): 1%
- % Control of cDNA-specific [^3H]succinate uptake (drIndy; [3H]succinate 40 nM, inhibitor 2.5 mM): 8%
- cDNA-specific [^3H] succinate uptake (drIndy; [3H]succinate 40 nM, inhibitor 2.5 mM, NaCl buffer pH 7.5): 6.8 ± 2.7 fmol/106 cells per min

Molecule: O=C(O)/C=C\C(=O)O [Maleate]
- [^14C]-Citrate Uptake (cDNA-specific) (human NaCT): 58.0 ± 6.7 pmol/10^6 cells/min
- [^14C]-Citrate Uptake, % (human NaCT): 121%
- [^14C]Citrate uptake (cDNA-specific) (rat NaCT [1]): 78.8 ± 1.5 Pmol/10^6 cells/min
- [^14C]Citrate uptake, % (rat NaCT [1]): 73%
- Competition with [^14C]citrate for ceNaCT-mediated uptake (ceNaCT): failed to compete with citrate
- [^3H]-Succinate transport (NaCT-specific) (mouse NaCT): 0.165 ± 0.014 pmol/10^6 cells/min
- [^3H]-Succinate transport, % (mouse NaCT): 113%
- [^14C]-Citrate transport (NaCT-specific) (mouse NaCT): 31.2 ± 2.5 pmol/10^6 cells/min
- [^14C]-Citrate transport, % (mouse NaCT): 82%
- % Control of cDNA-specific [^3H]succinate uptake (drIndy): 85%
- cDNA-specific [^3H] succinate uptake (drIndy; pH 7.5): 123.1 ± 7.6 fmol/106 cells per min

Molecule: CCCC(CCC)C(=O)O [Valproate, valproate]
- Citrate uptake, zfNaCT, percent of corresponding control (zebrafish NaCT; [5]): 93.2%
- Citrate uptake, hNaCT, percent of corresponding control (human NaCT; [5]): 111%
- Citrate uptake, rNaCT, percent of corresponding control (rat NaCT [1]; [5]): 96%
- Citrate uptake, ceNaCT, percent of corresponding control (ceNaCT; [5]): 106%
- Citrate uptake, mNaCT, percent of corresponding control (mouse NaCT; [5]): 100%
- Plasma concentrations / therapeutic plasma levels in humans ([2]; patients under treatment): 300 to 600 µM
- Citrate uptake, HepG2 cells, percent of corresponding control (NaCT in HepG2 cells; [5]): 105%

Molecule: O=C(O)/C=C(/CC(=O)O)C(=O)O [cis-Aconitate, cis-aconitate]
- [^14C]-Citrate Uptake (cDNA-specific) (human NaCT; [6]): 55.5 ± 3.3 pmol/10^6 cells/min
- [^14C]-Citrate Uptake, % (human NaCT; [7]): 116%
- Substrate-induced currents as % of citrate-induced currents (rat NaCT [3]; substrate 0.5 mM): approximately 10%
- Competition with [^14C]citrate for ceNaCT-mediated uptake (ceNaCT; [8]): did not compete with [^14C]citrate as effectively as unlabelled citrate
- [^3H]-Succinate transport (NaCT-specific) (mouse NaCT; [9]): 0.062 ± 0.005 pmol/10^6 cells/min
- [^3H]-Succinate transport, % (mouse NaCT; [10]): 43%
- [^14C]-Citrate transport (NaCT-specific) (mouse NaCT; [11]): 18.1 ± 1.8 pmol/10^6 cells/min
- [^14C]-Citrate transport, % (mouse NaCT; [12]): 47%

Molecule: tunicamycin
- Effect on NaCT activity in HepG2 cells (NaCT in HepG2 cells; treatment of HepG2 cells with tunicamycin): significant inhibition

B1: ceNaCT (Caenorhabditis elegans; I91S/L182M) (protein)
chain: MKPSPQRTLIKKLLVLLGPLVAVPLLFFGPEYRCLFSIIFLSTYWIGEAFPIGVTSLFPLALYPILQIVPSKQISPVYFKDSIVLFMCTLSMAMAVEATGLHRRIALKLLTKVGAKQPVMLLGFMCITSFISFFVSDTACTALMCPTAVALLMSMSDAVQHLKEDHRKPKPPPDDATVAEKMRIDDMTPQDAGFCKALILACAHASLIGGTAIITSTGPNLVFRENIHKRYPEGQVTMTYLQWMVFAIPPMFVYLLASYIILVCYFMGPSTFARWFERPSKEEAHLKKLIEKNIQTMYEDLGDVSWGEKSVFVFFILLIGSWISRDPGFTPGWGDLLPHRNFISDSVSGVLISCILFVWPKDPFDPIDPMAPILKWTDMKSKFSWSCTLLIGAGYAISEGVDKSGLSRLISCGMKNIFVGMSSLPLQLTVTTIIVIMTEFASNVSTGSIFIPISLGVAESMGVHPLYLALPTTVACSFAFMLPISTPPNAVVYDTKVISMVEMIVCGFLLNIACILITSLNMNTWTYFIFSLNIFPENIVISSENSSYPVC
- Km [4]: 76 ± 14 µM
